The source of these data is PMC3095212 (Journal of immunology (Baltimore, Md. : 1950), 2011).

Test [1] has as its system CD8-negative m33 Y48βA T cells. Kind of test: T cell stimulation/antagonism, secreted IL-2. The following applies: 24 h. The class given is cell-based, mouse.
In test [2] the test system is CD8-negative 2C T cells. Kind of test: T cell stimulation/antagonism, secreted IL-2. Type of test: cell-based, mouse. The following applies: 24 h.
Test [3] relates to CD8-negative m33 T cells. As to conditions: 24 h.
Test [4] deals with K^b. As to conditions: ref [28]; cited from earlier work.

Residues, ends and D or L forms follow the SMILES beside them.

As usually defined, the IC50 is the point on the concentration scale where inhibition reaches its midpoint. Higher therefore signals a need for much substance. With `CC(C)C[C@H](NC(=O)[C@H](CC(=O)O)NC(=O)[C@H](Cc1ccccc1)NC(=O)[C@@H]1CCCN1C(=O)[C@H](CCCNC(=N)N)NC(=O)[C@@H]1CCCN1C(=O)[C@H](CO)NC(=O)[C@H](CC(C)C)NC(=O)[C@@H](N)CCC(N)=O)C(=O)O` [QL9 F5R] (H-QLSPRPFDL-OH), the IC50 came to 4.7 ± 0.4 nM in test [1] and 0.44 ± 0.27 nM in test [2].

`CC[C@H](C)[C@H](NC(=O)[C@@H](N)CO)C(=O)N[C@@H](Cc1ccc(O)cc1)C(=O)N[C@@H](C)C(=O)N[C@@H](Cc1ccc(O)cc1)C(=O)N[C@@H](Cc1ccc(O)cc1)C(=O)NCC(=O)N[C@@H](CC(C)C)C(=O)O` [SIY R4A] (H-SIYAYYGL-OH) registered a 50% inhibitory concentration (IC50) in test [3] of 0.15 nM.

Consider SIINFEKL [OVA], for which the “half-life of OVA/K^b” value in test [4] was 23 h.
